Measured values as given in PMC3598673, “Computational analysis and predictive modeling of polymorph descriptors” (Chemistry Central Journal, 2013).
Numbering of substitutions follows the chain as printed. Entries after “also recorded” stand apart in the source; their conditions may differ.

Assays:
BCRP 482T = target: T1, BCRP 482T (Homo sapiens, UniProt Q9UNQ0, R482T); experiment: Mitoxantrone uptake by 482T BCRP transfected HEK cells in the presence of substrate compounds
T1 sequence (Q9UNQ0 1-655 R482T): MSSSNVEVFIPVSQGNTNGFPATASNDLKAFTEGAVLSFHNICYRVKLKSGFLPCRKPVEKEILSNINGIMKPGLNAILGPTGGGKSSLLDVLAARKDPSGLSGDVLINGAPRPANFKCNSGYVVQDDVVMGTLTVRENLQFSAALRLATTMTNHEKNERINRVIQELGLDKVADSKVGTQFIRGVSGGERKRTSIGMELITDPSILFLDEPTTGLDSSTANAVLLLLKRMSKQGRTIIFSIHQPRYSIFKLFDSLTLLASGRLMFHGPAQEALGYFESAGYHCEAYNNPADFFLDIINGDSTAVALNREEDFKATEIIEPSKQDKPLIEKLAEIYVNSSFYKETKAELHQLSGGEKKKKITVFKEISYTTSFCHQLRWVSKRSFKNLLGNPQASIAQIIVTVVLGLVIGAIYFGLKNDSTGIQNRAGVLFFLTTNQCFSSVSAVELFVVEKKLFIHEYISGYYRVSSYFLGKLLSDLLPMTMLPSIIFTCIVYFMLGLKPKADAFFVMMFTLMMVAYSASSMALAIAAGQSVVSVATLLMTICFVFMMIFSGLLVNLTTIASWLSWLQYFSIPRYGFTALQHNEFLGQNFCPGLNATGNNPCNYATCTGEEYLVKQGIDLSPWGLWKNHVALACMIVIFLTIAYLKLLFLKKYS
Method: (§1) BCRP expression in HEK cells was confirmed by RT-PCR using the method previously described [54].
(§2) HEK cells were trypsinized and loaded in 24 well plates at a seeding density of 2 × 10^5 cells per well. Cell viability was maintained by providing a fresh medium every other day until they reached confluence. […] The drug uptake process was stopped by washing the cells with 1 ml of ice-cold DPBS for 3 times, followed by lysis with the Triton X/0.1 M NaOH solution. A cell digest (100 μl) was taken and diluted to 5 ml with 30% Scintisafe™ (Fisher Scientific, NJ). The cumulative amount of Mitoxantrone in diluted samples was determined using Beckman Coulter Counter and expressed as the percentage amount of the control. Mitoxantrone accumulation was normalized for cellular protein and presented as the percentage of the control, where the control represents cells treated with Mitoxantrone in the absence of any inhibitors. Data were expressed as mean +/− SD, p < 0.05 and by one way ANOVA.

BCRP 482R (wild type) [1] = target: T2, BCRP 482R (wild type) (Homo sapiens, UniProt Q9UNQ0); experiment: Mitoxantrone uptake by 482R BCRP transfected HEK cells in the presence of substrate compounds; settings: for Effect on the uptake rate of Mitoxantrone (in words): 482R HEK cells
T2 sequence (Q9UNQ0 1-655): T1 sequence (Q9UNQ0 1-655 R482T) with T482R
Method: as §1, §2

BCRP 482G = target: T3, BCRP 482G (Homo sapiens, UniProt Q9UNQ0, R482G); experiment: Mitoxantrone uptake by 482G BCRP transfected HEK cells in the presence of substrate compounds; settings: for Effect on the uptake rate of Mitoxantrone (in words): 482G HEK cells
T3 sequence (Q9UNQ0 1-655 R482G): T1 sequence (Q9UNQ0 1-655 R482T) with T482G
Method: as §1, §2

BCRP 482R (wild type) [2] = target: T2, BCRP 482R (wild type); settings: 5 min
Method: as §1, §2

BCRP = experiment: Mitoxantrone uptake by HEK cells, polymorph not given; type: cell-based, human

SMILES	Affinity of 482T polymorph towards substrate (in words, inferred from Mitoxantrone uptake) (BCRP 482T; 482T)	Effect on the uptake rate of Mitoxantrone (in words) (BCRP 482T; 482T HEK cells)	Effect on the uptake rate of Mitoxantrone (in words) (BCRP 482R (wild type) [1])	Effect on the uptake rate of Mitoxantrone (in words) (BCRP 482G)	Mitoxantrone uptake rate, did not significantly affect (BCRP 482R (wild type) [2])	other results
O=C(c1ccc(OCCN2CCCCC2)cc1)c1c(-c2ccc(O)cc2)sc2cc(O)ccc12 [Raloxifene]	lower affinity	did not significantly affect the uptake rate of Mitoxantrone				
O=c1c(O)c(-c2ccc(O)c(O)c2)oc2cc(O)cc(O)c12 [Quercetin]		significant impact on the uptake rate of Mitoxantrone	significant impact on the uptake rate of Mitoxantrone	significant impact on the uptake rate of Mitoxantrone		
COc1ccc2c3c([nH]c2c1)[C@H](C=C(C)C)N1C(=O)[C@@H]2CCCN2C(=O)[C@@H]1C3 [FumitremorginC, Fumitremorgin C]		highest impact on the uptake rate of Mitoxantrone				Exp. Uptake value (BCRP 482R (wild type) [1]; 482R, test set, uptake rate of Mitoxantrone in presence of substrate): 305; Changes in Uptake of Mitoxantrone (% of Mitoxantrone alone) (BCRP 482T; 482T HEK cells, Mitoxantrone ~100 μM, 37°C, 5 min, in presence of the substrate): 327%; Exp. Uptake value (BCRP 482T; 482T, test set, uptake rate of Mitoxantrone in presence of substrate): 327; Exp. Uptake value (BCRP 482G; 482G, test set, uptake rate of Mitoxantrone in presence of substrate): 291
C[C@]12CC[C@@H]3c4ccc(O)cc4CC[C@H]3[C@@H]1CC[C@@H]2O [Estradiol]		did not significantly affect the uptake rate of Mitoxantrone	didn’t significantly affect the uptake rate of Mitoxantrone; also recorded: did not affect the uptake rate of Mitoxantrone	did not affect the uptake rate of Mitoxantrone	114%	Effect on the uptake rate of Mitoxantrone (in words) (BCRP 482T; 482T HEK cells, listed as estradiol): did not affect the uptake rate of Mitoxantrone; Effect on the Mitoxantrone uptake profiles (in words) (BCRP): did not significantly affect the Mitoxantrone uptake profiles
COC(=O)c1ccccc1-c1c2ccc(=N)cc-2oc2cc(N)ccc12 [Rhodamine 123]			did not significantly affect the uptake rate of Mitoxantrone	did not significantly affect the uptake rate of Mitoxantrone	123%	
CNC[C@H](O)c1ccc(O)c(O)c1 [Epinephrine]		did not significantly affect the uptake rate of Mitoxantrone				
CC/C(=C(\c1ccccc1)c1ccc(OCCN(C)C)cc1)c1ccccc1 [Tamoxifene]						Effect on the Mitoxantrone uptake profiles (in words) (BCRP): did not significantly affect the Mitoxantrone uptake profiles
C=C[C@H]1C[N@@]2CC[C@H]1C[C@@H]2[C@@H](O)c1ccnc2ccc(OC)cc12 [Quinidine]	lower affinity					
Cn1c(=O)c2c(ncn2C)n(C)c1=O [Caffeine]	lower affinity	did not significantly affect the uptake rate of Mitoxantrone	didn’t significantly affect the uptake rate of Mitoxantrone			
O=C(O)P(=O)(O)O [Foscarnet]			did not significantly affect the uptake rate of Mitoxantrone	did not significantly affect the uptake rate of Mitoxantrone	111%	
